Reference: patent US9682960B2 (priority 2013, dated 2017)
Values joined by “and” are separate entries in the source; they are usually repeats but may differ in a detail not shown here. Identical values can stand only once. Like-named read-outs stand apart in the source and are kept apart here.

Experiments:
Rat Androgen Receptor = Rat Androgen Receptor (Rattus norvegicus (Rat), UniProt P15207); assay: Androgen receptor assay: [3H]R1881 displacement, rat prostate cytosol; assay type: binding; conditions: relative binding affinity, R1881 = 100; prostate cytosol
Sequence of Rat Androgen Receptor (P15207 whole entry, looked up): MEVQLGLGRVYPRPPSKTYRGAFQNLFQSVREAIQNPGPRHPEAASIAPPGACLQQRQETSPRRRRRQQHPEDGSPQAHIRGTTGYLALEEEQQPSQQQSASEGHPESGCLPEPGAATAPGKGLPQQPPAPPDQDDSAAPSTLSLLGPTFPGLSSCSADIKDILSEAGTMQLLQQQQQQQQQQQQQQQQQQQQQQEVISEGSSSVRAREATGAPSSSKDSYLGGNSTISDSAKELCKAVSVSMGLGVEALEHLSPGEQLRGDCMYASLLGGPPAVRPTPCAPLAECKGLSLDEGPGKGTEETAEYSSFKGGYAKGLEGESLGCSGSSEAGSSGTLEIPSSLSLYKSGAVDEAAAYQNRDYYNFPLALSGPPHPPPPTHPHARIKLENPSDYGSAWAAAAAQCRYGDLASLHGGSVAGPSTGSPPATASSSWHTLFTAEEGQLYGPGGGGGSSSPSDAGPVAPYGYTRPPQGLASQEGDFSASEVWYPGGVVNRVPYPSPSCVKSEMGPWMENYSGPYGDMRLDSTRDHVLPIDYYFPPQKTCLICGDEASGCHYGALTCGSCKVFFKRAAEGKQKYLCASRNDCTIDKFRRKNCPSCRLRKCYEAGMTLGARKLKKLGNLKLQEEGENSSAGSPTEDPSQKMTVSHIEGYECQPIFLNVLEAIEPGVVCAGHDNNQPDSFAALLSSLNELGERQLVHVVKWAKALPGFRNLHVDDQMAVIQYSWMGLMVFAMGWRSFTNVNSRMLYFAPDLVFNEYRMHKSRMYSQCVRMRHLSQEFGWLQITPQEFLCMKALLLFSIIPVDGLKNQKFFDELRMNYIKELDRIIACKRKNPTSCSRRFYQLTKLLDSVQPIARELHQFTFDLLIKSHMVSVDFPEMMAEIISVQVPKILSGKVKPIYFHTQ
Procedure: On the morning of the binding assay, ventral prostates collected from 24 h-gonadectomized rats were homogenized in buffer A (1 g of tissue in 5 mL) and the homogenate was centrifuged as described above.
Androgen binding is measured using the hydroxylapatite (HAP) assay. In brief, the radioactive steroid [^3H]R1881 solubilized in ethanol is diluted with buffer B (10 mM Tris-HCl, 1.5 mM EDTA disodium salt, 10 mM α-monothioglycerol, pH 7.4). Aliquots of the cell or prostate cytosol preparation (0.1 ml) are then incubated with 5 nM [^3H]R1881 (0.1 ml, ˜100 000 cpm) in the presence or absence of the indicated concentrations of unlabeled compounds (0.1 ml, prepared in buffer B containing 30% ethanol) for 16-18 h at 0-4° C. Triamcinolone acetonide (TAC; 100 nM) is added to mask progesterone receptors. Unbound steroids are separated by incubation for 40 min at 0-4° C. with 0.3 ml HAP prepared in buffer P (50 mM Tris-HCl, 10 mM KH2PO4, pH 7.4). After incubation with HAP and 10 min of centrifugation at 1000×g, the pellet is washed 3 times with 1 ml of buffer P. Thereafter, the radioactivity is extracted from the pellet by incubation at room temperature for 60 min with 1 ml of ethanol. After centrifugation, the supernatant is decanted into a scintillation vial and the pellet is extracted again with ethanol. After the addition of scintillation liquid, the radioactivity is measured in a liquid scintillation counter.
Relative binding affinity (RBA) was calculated by the following formula: RBA (%) [IC50(R1881)/IC50 (compound)]×100 B—In Vitro Assay of Androgenic/Antiandrogenic Activity

[1] = tested on: Shionogi mouse mammary carcinoma cells; assay: In vitro androgenic/antiandrogenic activity: proliferation of Shionogi cells with or without DHT; assay type: cell-based
[2] = tested on: PSA levels in human prostatic carcinoma LNCaP cells; assay: Prostate specific antigen (PSA) in LNCaP cells with or without R1881; assay type: cell-based; conditions: for LNCaP Cells Antiandrogenic activity (PSA) % inhibition at 10^−7M: R1881-stimulated, 10^−7M of compound
Procedure: LNCaP cells were cultured as previously described (Qi et al. 2001). In brief, the LNCaP cells were cultured for 6 days in 1.0 ml RPMI 1640 supplemented with hormone-depleted 0.25% FCS before each experiment. At the start of the experiment, half of the medium (0.5 ml) was replaced with 0.5 ml of identical medium containing the appropriate concentrations of tested compounds, in the presence or absence of 1.0 nM of R1881. After 72 h of incubation of LNCaP cells with compounds, 0.5 ml of culture medium was removed for PSA determination. PSA levels were measured using the PSA [^125I] IRMA KIT (REF: RK-10CT) from Izotop (Institute of Isotopes Ltd, Budapest, Hungary).

Human Androgen Receptor = Human Androgen Receptor (Homo sapiens (Human), UniProt P10275); assay: Androgen receptor assay: [3H]R1881 displacement, cytosol of HEK-293 cells transfected with hAR (hydroxylapatite assay); assay type: binding; conditions: for Human Androgen Receptor Binding RBA (%) R1881 = 100: relative binding affinity; for times more binding to the human androgen receptor than the corresponding hydantoin: thiohydantoin versus hydantoin (EM-9052 vs EM-9150; EM-7105 vs EM-7333); for affinity for the androgen receptor (in words): SAR discussion
Sequence of Human Androgen Receptor (P10275 whole entry): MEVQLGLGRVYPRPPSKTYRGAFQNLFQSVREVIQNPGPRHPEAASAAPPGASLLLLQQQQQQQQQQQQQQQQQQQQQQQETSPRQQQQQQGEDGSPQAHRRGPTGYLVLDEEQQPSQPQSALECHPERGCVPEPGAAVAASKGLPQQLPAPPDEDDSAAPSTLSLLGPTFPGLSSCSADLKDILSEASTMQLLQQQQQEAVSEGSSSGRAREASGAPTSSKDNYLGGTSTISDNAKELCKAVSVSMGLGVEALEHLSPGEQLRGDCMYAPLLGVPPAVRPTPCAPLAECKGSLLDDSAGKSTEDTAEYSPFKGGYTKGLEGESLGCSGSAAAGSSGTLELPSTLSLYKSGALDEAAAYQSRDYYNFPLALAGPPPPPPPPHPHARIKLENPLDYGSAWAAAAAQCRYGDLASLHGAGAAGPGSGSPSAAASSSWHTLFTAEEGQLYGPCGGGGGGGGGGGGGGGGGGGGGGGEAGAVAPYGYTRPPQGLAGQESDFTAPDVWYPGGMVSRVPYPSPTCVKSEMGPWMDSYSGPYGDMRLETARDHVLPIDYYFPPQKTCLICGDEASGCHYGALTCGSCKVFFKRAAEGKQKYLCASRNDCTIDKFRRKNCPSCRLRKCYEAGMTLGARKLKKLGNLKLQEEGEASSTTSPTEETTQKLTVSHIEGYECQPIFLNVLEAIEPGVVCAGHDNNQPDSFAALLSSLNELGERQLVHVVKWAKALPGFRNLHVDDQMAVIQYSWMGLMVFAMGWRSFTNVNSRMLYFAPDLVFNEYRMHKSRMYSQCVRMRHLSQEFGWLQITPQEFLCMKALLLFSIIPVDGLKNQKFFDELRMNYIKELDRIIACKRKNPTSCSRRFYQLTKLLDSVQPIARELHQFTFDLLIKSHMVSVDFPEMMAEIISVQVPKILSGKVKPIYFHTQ

[3] = tested on: castrated (CX) immature male rats; assay: Systemic androgenic (agonistic) activity in orchidectomized (CX) immature male rats; assay type: in vivo, rat; conditions: 0.1 mg/rat/po, 7 days; for CX Agonistic activity % Stimulation Bulbo: bulbocavernosus muscles weight; for CX Agonistic activity % Stimulation SV: seminal vesicles weight; for CX Agonistic activity % Stimulation Prostate: ventral prostate weight
Androgen Receptor = assay: Overall classification (antiandrogen / SARM) in the models studied
[4] = DHT (0.3 nM)-stimulated cell number, read-out: Shionogi Antiandrogenic Activity IC50
[5] = Mus musculus, read-out: Shionogi Antiandrogenic Activity IC50, DHT (0.3 nM)-stimulated cell number

| Structure (SMILES) | Rat Androgen Receptor Binding RBA (%) R1881 = 100 (Rat Androgen Receptor) | IC50 [1, 4] | LNCaP Cells Antiandrogenic activity (PSA) % inhibition at 10^−7M [2] | Human Androgen Receptor Binding RBA (%) R1881 = 100 (Human Androgen Receptor; transfected cells) | times more binding to the human androgen receptor than the corresponding hydantoin (Human Androgen Receptor) | IC50 [1, 5] | CX Agonistic activity % Stimulation Bulbo [3] | CX Agonistic activity % Stimulation SV [3] | CX Agonistic activity % Stimulation Prostate [3] | classification as antiandrogen or SARM (in words) (Androgen Receptor) | affinity for the androgen receptor (in words) (Human Androgen Receptor) | Human Androgen Receptor Binding RBA (%) R1881 = 100 (Human Androgen Receptor; […]) | inhibition at 0.1 µM ([2]; Homo sapiens, LNCaP, read-out: LNCaP Cells Antiandrogenic activity (PSA) % inhibition at 10^−7M, R1881-stimulated, 10^−7M of compound) |
| --- | --- | --- | --- | --- | --- | --- | --- | --- | --- | --- | --- | --- | --- |
| CC(C)NCc1ccc(OCCCN2C(=S)N(c3ccc(C#N)c(C(F)(F)F)c3)C(=O)C2(C)C)cc1 [EM-7105, reference compound] | 3.9% | 9.4 nM | 26% | 41% and 41 ± 30% | around 140 times | – | – | – | – | – | – | – | – |
| CCNCc1ccc(OCCCN2C(=S)N(c3ccc(C#N)c(C(F)(F)F)c3)C(=O)C2(C)C)cc1 [EM-7148, reference compound] | – | 9.2 nM | 33% | 11% and 11 ± 1% | – | – | – | – | – | – | – | – | – |
| Cc1c(N2C(=O)C(C)(C)N(CCCOc3ccc(-c4ccncc4)cc3)C2=S)ccc(C#N)c1C(F)(F)F [EM-8691] | – | – | – | – | – | > 100 nM | 163% | 24% | 39% | potent SARM | high affinity | 525 ± 362 (n = 3) % | – |
| Cc1c(N2C(=O)C(C)(C)N(CCCOc3ccc(-c4ccncc4)c(C(F)(F)F)c3)C2=S)ccc(C#N)c1C(F)(F)F [EM-8821] | – | – | – | 28.3% | – | 11.5 nM | 74% | 22% | 22% | weaker SARM | decreased affinity | – | – |
| CC1(C)C(=O)N(c2ccc(C#N)c(Cl)c2)C(=S)N1CCCOc1ccc(-c2ccncc2)cc1Cl [EM-9052] | – | – | – | – | 27 times | 61 nM | – | – | – | – | – | – | 26% |
| CC1(C)C(=O)N(c2ccc(C#N)c(Cl)c2)C(=O)N1CCCOc1ccc(-c2ccncc2)cc1 [EM-9116] | – | – | – | – | – | 17 ± 5 nM | – | – | – | better antiandrogens | higher affinity | 9.2 ± 1.9 (n = 5) % | – |
| Cc1c(N2C(=O)N(CCCOc3ccc(-c4cc[n+]([O-])cc4)cc3Cl)C(C)(C)C2=O)ccc(C#N)c1Cl [EM-9252] | – | – | – | – | – | > 100 nM | 105 ± 9 (n = 2) % | 29 ± 5 (n = 2) % | 46 ± 5 (n = 2) % | selective androgen receptor modulators | – | 96.3% | – |
| Cc1c(N2C(=O)NC(C)(C)C2=O)ccc(C#N)c1Cl [EM-9289] | – | – | – | – | – | ~1000 nM | 138 ± 15 (n = 2) % | 38 ± 5 (n = 2) % | 50 ± 6 (n = 2) % | selective androgen receptor modulators | – | 1.0% | – |
| Cc1c(N2C(=O)N(CCCOc3ccc(-c4cc[n+]([O-])cc4Cl)cc3)C(C)(C)C2=O)ccc(C#N)c1Cl [EM-9313] | – | – | – | – | – | > 100 nM | 88 ± 2 (n = 2) % | 14 ± 9 (n = 2) % | 36 ± 2 (n = 2) % | – | – | 34.1% | – |
| Cc1c(N2C(=O)N(CCCOc3ccc(-c4cc[n+]([O-])cc4F)cc3)C(C)(C)C2=O)ccc(C#N)c1Cl [EM-9318] | – | – | – | 46.1% | – | 100 nM | 92 ± 27 (n = 2) % | 14 ± 9 (n = 2) % | 42 ± 3 (n = 2) % | – | – | – | – |
| Cc1c(N2C(=O)N(CCCOc3ccc(-c4cc[n+]([O-])cc4)cc3C(F)(F)F)C(C)(C)C2=O)ccc(C#N)c1Cl [EM-9319] | – | – | – | – | – | 97.8 nM | 110 ± 10 (n = 2) % | 17 ± 10 (n = 2) % | 39 ± 2 (n = 2) % | – | – | 9.6% | – |
| Cc1c(N2C(=O)N(CCCOc3ccc(-c4ccncc4)c(C(F)(F)F)c3)C(C)(C)C2=O)ccc(C#N)c1Cl [EM-9333] | – | – | – | – | – | 73 nM | 93 ± 23 (n = 2) % | 19 ± 5 (n = 2) % | 38 ± 2 (n = 2) % | – | – | 64.1% | – |
| Cc1c(N2C(=O)N(CCCOc3ccc(-c4cc[n+]([O-])cc4)c(C(F)(F)F)c3)C(C)(C)C2=O)ccc(C#N)c1Cl [EM-9334] | – | – | – | – | – | 28.9 nM | 86% | 17% | 30% | – | – | 17.8% | – |
